Measurements as given in patent US20260008775A1, “AZOLE MODULATORS OF CHOLESTEROL BIOSYNTHESIS AND THEIR USE FOR PROMOTING REMYELINATION” (GENENTECH, INC., priority 2022, published 2026).

Tests used:
[1] = biological target: human emopamil binding protein and human 7-dehydrocholesterol reductase (hEBP-DHCR7) (Homo sapiens (Human), UniProt Q15125); test: hEBP-DHCR7 radioligand binding assay (filter binding, membranes of co-expressing HEK293 cells); details: competition with [3H] radioligand, 8 doses 0.06 to 5000 nM, Ki calculated from IC50
human emopamil binding protein and human 7-dehydrocholesterol reductase (hEBP-DHCR7), sequence (Q15125 whole entry): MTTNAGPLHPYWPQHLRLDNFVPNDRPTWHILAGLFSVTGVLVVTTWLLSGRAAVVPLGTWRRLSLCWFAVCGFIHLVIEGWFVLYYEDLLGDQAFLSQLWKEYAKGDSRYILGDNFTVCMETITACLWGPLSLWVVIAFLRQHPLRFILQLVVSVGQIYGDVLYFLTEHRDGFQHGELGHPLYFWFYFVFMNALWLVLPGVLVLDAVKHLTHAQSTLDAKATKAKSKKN
Outline: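 Compound, either single dose 1 μM or eight 5-fold dilutions from 0.06 to 5000 nM, competed with a [3H]-labelled ligand added at 25 nM for binding to co-expressing HEK293 membranes. IC50 came from nonlinear regression, with full block and DMSO as controls, then Cheng–Prusoff conversion to Ki.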

[2] = test system: zymostenol accumulation (EBP) in EpiSC-derived OPCs; test: GC/MS-based sterol profiling, zymostenol accumulation in EpiSC-derived OPCs; assay type: cell-based, mouse; details: Mus musculus, 24 h, EpiSC-derived OPCs, 24 hr, 8 doses from 0.15 nM to 333 nM; read-out: Mouse Zymostenol GCMS EC50
Outline: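 Zymostenol level is expressed relative to that after 24 h with 100 nM positive-control reference, measured by full-scan GC/MS (m/z 458) with cholesterol-d7 internal standard after BSTFA derivatisation. Cells were EpiSC-derived OPCs, 100,000/well in N2B27 without growth factors, treated 24 h, from two or more independent platings.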

EpiSC-derived OPCs = test: In vitro phenotypic screening of OPCs, MBP high-content imaging (percentage of oligodendrocytes); assay type: cell-based, mouse; details: Mus musculus, 72 h, 3 days, MBP stain, dose-response 0.5 nM to 1000 nM; read-out: OPC EC50
Outline: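 EC50 was fitted by Hill equation to the MBP-positive oligodendrocyte percentage from imaging of fixed, MBP- and DAPI-stained cells. Treatment lasted 3 days at 37 °C, final doses 0.5–1000 nM over 8 points, in growth factor-free N2B27. Cells were EpiSC-derived OPCs, tested in at least two independent platings.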

Row | Compound | Ki [1] | EC50 [2] | EC50 (EpiSC-derived OPCs)
1 | CC(C)n1nc(-c2ccc(C(F)(F)F)cc2)cc1[C@H]1[C@@H]2C[C@H](N3CCOCC3)C[C@@H]21 [Compound 173, 4-((1R,3r,5S,6r)-6-(1-Isopropyl-3-(4-(trifluoromethyl)phenyl)-1H-pyrazol-5-yl)bicyclo[3.1.0]hexan-3-yl)morpholine] | 0.00781 µM | 0.004 µM | 0.0223 µM
2 | CC(C)n1nc(-c2cccc(C(F)(F)F)c2)cc1[C@H]1[C@@H]2C[C@@H](N3CCCOCC3)C[C@@H]21 [Compound 175*, 4-((1R,3r,5S,6r)-6-(1-Isopropyl-3-(3-(trifluoromethyl)phenyl)-1H-pyrazol-5-yl)bicyclo[3.1.0]hexan-3-yl)-1,4-oxazepane] | 0.0142 µM | 0.00546 µM | 0.0113 µM
3 | CC(C)n1nc(-c2cccc(C(F)(F)F)c2)cc1[C@H]1[C@@H]2C[C@H](N3CCCOCC3)C[C@@H]21 [Compound 176*, 4-((1R,3s,5S,6r)-6-(1-isopropyl-3-(3-(trifluoromethyl)phenyl)-1H-pyrazol-5-yl)bicyclo[3.1.0]hexan-3-yl)-1,4-oxazepane] | 0.00864 µM | 0.00171 µM | 0.00182 µM
4 | CC(C)n1nc(-c2cncc(Cl)c2)cc1[C@H]1[C@@H]2C[C@@H](N3CCCOCC3)C[C@@H]21 [Compound 177*, 4-((1R,3s,5S,6r)-6-(3-(5-Chloropyridin-3-yl)-1-isopropyl-1H-pyrazol-5-yl)bicyclo[3.1.0]hexan-3-yl)-1,4-oxazepane] | 0.0155 µM | 0.00416 µM | 0.00982 µM
5 | CC(C)n1nc(-c2cncc(Cl)c2)cc1[C@H]1[C@@H]2C[C@H](N3CCCOCC3)C[C@@H]21 [Compound 178*, 4-((1R,3r,5S,6r)-6-(3-(5-chloropyridin-3-yl)-1-isopropyl-1H-pyrazol-5-yl)bicyclo[3.1.0]hexan-3-yl)-1,4-oxazepane] | 0.0358 µM | 0.0656 µM | 0.555 µM
6 | CC(C)n1nc(-c2ccc(C#N)cc2)cc1[C@H]1[C@@H]2C[C@H](N3CCCOCC3)C[C@@H]21 [Compound 179*, 4-(5-((1R,3r,5S,6r)-3-(1,4-Oxazepan-4-yl)bicyclo[3.1.0]hexan-6-yl)-1-isopropyl-1H-pyrazol-3-yl)benzonitrile] | 0.0109 µM | 0.000952 µM | 0.0264 µM
7 | CC(C)n1nc(-c2ccc(C#N)cc2)cc1[C@H]1[C@@H]2C[C@@H](N3CCCOCC3)C[C@@H]21 [Compound 180*, 4-(5-((1R,3s,5S,6r)-3-(1,4-oxazepan-4-yl)bicyclo[3.1.0]hexan-6-yl)-1-isopropyl-1H-pyrazol-3-yl)benzonitrile] | 0.0306 µM | 0.0245 µM | 0.124 µM
8 | CC(C)n1nc(-c2ccc(C(F)(F)F)cc2)cc1[C@H]1[C@@H]2C[C@H](N3CCCOCC3)C[C@@H]21 [Compound 181*, 4-((1R,3r,5S,6r)-6-(1-Isopropyl-3-(4-(trifluoromethyl)phenyl)-1H-pyrazol-5-yl)bicyclo[3.1.0]hexan-3-yl)-1,4-oxazepane] | 0.0101 µM | 0.007 µM | 0.0124 µM
9 | CC(C)n1nc(-c2ccc(C(F)(F)F)cc2)cc1[C@H]1[C@@H]2C[C@@H](N3CCCOCC3)C[C@@H]21 [Compound 182*, 4-((1R,3s,5S,6r)-6-(1-isopropyl-3-(4-(trifluoromethyl)phenyl)-1H-pyrazol-5-yl)bicyclo[3.1.0]hexan-3-yl)-1,4-oxazepane] | 0.0158 µM | 0.0185 µM | 0.0369 µM
10 | CC(C)n1nc(-c2ccc(F)cc2)cc1[C@H]1[C@@H]2C[C@H](N3CCCOCC3)C[C@@H]21 [Compound 183*, 4-((1R,3r,5S,6r)-6-(3-(4-Fluorophenyl)-1-isopropyl-1H-pyrazol-5-yl)bicyclo[3.1.0]hexan-3-yl)-1,4-oxazepane] | 0.0106 µM | 0.0086 µM | 0.0131 µM
11 | CC(C)n1nc(-c2ccc(F)cc2)cc1[C@H]1[C@@H]2C[C@@H](N3CCCOCC3)C[C@@H]21 [Compound 184*, 4-((1R,3s,5S,6r)-6-(3-(4-fluorophenyl)-1-isopropyl-1H-pyrazol-5-yl)bicyclo[3.1.0]hexan-3-yl)-1,4-oxazepane] | 0.0213 µM | 0.0271 µM | 0.0559 µM
12 | CC(C)n1nc(-c2ccc(OC(F)(F)F)cc2)cc1[C@H]1[C@@H]2C[C@H](N3CCCOCC3)C[C@@H]21 [Compound 185*, 4-((1R,3r,5S,6r)-6-(1-Isopropyl-3-(4-(trifluoromethoxy)phenyl)-1H-pyrazol-5-yl)bicyclo[3.1.0]hexan-3-yl)-1,4-oxazepane] | 0.012 µM | 0.00766 µM | 0.0113 µM
13 | CC(C)n1nc(-c2ccc(OC(F)(F)F)cc2)cc1[C@H]1[C@@H]2C[C@@H](N3CCCOCC3)C[C@@H]21 [Compound 186*, 4-((1R,3s,5S,6r)-6-(1-isopropyl-3-(4-(trifluoromethoxy)phenyl)-1H-pyrazol-5-yl)bicyclo[3.1.0]hexan-3-yl)-1,4-oxazepane] | 0.0206 µM | 0.0567 µM | 0.431 µM
14 | CC(C)n1nc(-c2cncc(F)c2)cc1[C@H]1[C@@H]2C[C@H](N3CCCOCC3)C[C@@H]21 [Compound 187*, 4-((1R,3r,5S,6r)-6-(3-(5-Fluoropyridin-3-yl)-1-isopropyl-1H-pyrazol-5-yl)bicyclo[3.1.0]hexan-3-yl)-1,4-oxazepane] | 0.0203 µM | 0.00775 µM | 0.0373 µM
15 | CC(C)n1nc(-c2cncc(F)c2)cc1[C@H]1[C@@H]2C[C@@H](N3CCCOCC3)C[C@@H]21 [Compound 188*, 4-((1R,3s,5S,6r)-6-(3-(5-fluoropyridin-3-yl)-1-isopropyl-1H-pyrazol-5-yl)bicyclo[3.1.0]hexan-3-yl)-1,4-oxazepane] | 0.169 µM | 0.122 µM | 0.549 µM
16 | CC(C)n1nc(-c2cccc(OC(F)(F)F)c2)cc1[C@H]1[C@@H]2C[C@H](N3CCCOCC3)C[C@@H]21 [Compound 189*, 4-((1R,3r,5S,6r)-6-(1-isopropyl-3-(3-(trifluoromethoxy)phenyl)-1H-pyrazol-5-yl)bicyclo[3.1.0]hexan-3-yl)-1,4-oxazepane] | 0.00914 µM | 0.00343 µM | 0.00332 µM
17 | CC(C)n1nc(-c2cccc(OC(F)(F)F)c2)cc1[C@H]1[C@@H]2C[C@@H](N3CCCOCC3)C[C@@H]21 [Compound 190*, 4-((1R,3s,5S,6r)-6-(1-isopropyl-3-(3-(trifluoromethoxy)phenyl)-1H-pyrazol-5-yl)bicyclo[3.1.0]hexan-3-yl)-1,4-oxazepane] | 0.00963 µM | 0.0109 µM | 0.0251 µM
18 | CC(C)n1nc(-c2cccc(C#N)c2)cc1[C@H]1[C@@H]2C[C@H](N3CCCOCC3)C[C@@H]21 [Compound 191*, 3-(5-((1R,3r,5S,6r)-3-(1,4-Oxazepan-4-yl)bicyclo[3.1.0]hexan-6-yl)-1-isopropyl-1H-pyrazol-3-yl)benzonitrile] | 0.00804 µM | 0.00266 µM | 0.00852 µM
19 | CC(C)n1nc(-c2cccc(C#N)c2)cc1[C@H]1[C@@H]2C[C@@H](N3CCCOCC3)C[C@@H]21 [Compound 192*, 3-(5-((1R,3s,5S,6r)-3-(1,4-oxazepan-4-yl)bicyclo[3.1.0]hexan-6-yl)-1-isopropyl-1H-pyrazol-3-yl)benzonitrile] | 0.0126 µM | 0.0227 µM | 0.0616 µM
20 | CC(C)n1nc(-c2ccccc2F)cc1[C@H]1[C@@H]2C[C@H](N3CCCOCC3)C[C@@H]21 [Compound 193*, 4-((1R,3r,5S,6r)-6-(3-(2-Fluorophenyl)-1-isopropyl-1H-pyrazol-5-yl)bicyclo[3.1.0]hexan-3-yl)-1,4-oxazepane] | 0.00729 µM | 0.00541 µM | 0.00712 µM
21 | CC(C)n1nc(-c2ccccc2F)cc1[C@H]1[C@@H]2C[C@@H](N3CCCOCC3)C[C@@H]21 [Compound 194*, 4-((1R,3s,5S,6r)-6-(3-(2-fluorophenyl)-1-isopropyl-1H-pyrazol-5-yl)bicyclo[3.1.0]hexan-3-yl)-1,4-oxazepane] | 0.0131 µM | 0.0423 µM | 0.131 µM
22 | CC(C)n1nc(-c2cccc(F)c2)cc1[C@H]1[C@@H]2C[C@H](N3CCCOCC3)C[C@@H]21 [Compound 195*, 4-((1R,3r,5S,6r)-6-(3-(3-Fluorophenyl)-1-isopropyl-1H-pyrazol-5-yl)bicyclo[3.1.0]hexan-3-yl)-1,4-oxazepane] | 0.0127 µM | 0.00242 µM | 0.00749 µM
23 | CC(C)n1nc(-c2cccc(F)c2)cc1[C@H]1[C@@H]2C[C@@H](N3CCCOCC3)C[C@@H]21 [Compound 196*, 4-((1R,3s,5S,6r)-6-(3-(3-fluorophenyl)-1-isopropyl-1H-pyrazol-5-yl)bicyclo[3.1.0]hexan-3-yl)-1,4-oxazepane] | 0.0127 µM | 0.0133 µM | 0.0462 µM
24 | CC(C)n1nc(-c2cnc(C(F)(F)F)nc2)cc1[C@H]1[C@@H]2C[C@H](N3CCOCC3)C[C@@H]21 [Compound 203, 4-((1R,3r,5S,6r)-6-(1-isopropyl-3-(2-(trifluoromethyl)pyrimidin-5-yl)-1H-pyrazol-5-yl)bicyclo[3.1.0]hexan-3-yl)morpholine] | 0.0275 µM | 0.0214 µM | 0.0973 µM
